Measurements reported in BindingDB's records for doi:10.1016/j.bmcl.2009.03.165 (Gsk, 2009).

Target: T1, Beta-secretase 2 (Homo sapiens, UniProt Q9Y5Z0)
T1 sequence (Q9Y5Z0 whole entry): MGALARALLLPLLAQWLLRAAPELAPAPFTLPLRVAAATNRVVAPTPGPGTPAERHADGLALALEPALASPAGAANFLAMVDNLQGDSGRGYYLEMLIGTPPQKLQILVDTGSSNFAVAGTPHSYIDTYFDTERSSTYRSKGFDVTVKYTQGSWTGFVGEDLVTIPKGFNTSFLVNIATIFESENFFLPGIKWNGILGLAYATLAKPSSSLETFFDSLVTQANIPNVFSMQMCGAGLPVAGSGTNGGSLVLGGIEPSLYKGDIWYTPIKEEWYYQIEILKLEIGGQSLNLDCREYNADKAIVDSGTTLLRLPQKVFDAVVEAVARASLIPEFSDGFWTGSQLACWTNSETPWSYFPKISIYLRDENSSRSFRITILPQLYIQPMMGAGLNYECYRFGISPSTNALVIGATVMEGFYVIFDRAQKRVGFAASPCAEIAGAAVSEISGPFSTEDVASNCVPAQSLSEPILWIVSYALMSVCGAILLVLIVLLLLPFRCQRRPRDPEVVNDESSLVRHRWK
Experiment: Enzyme Inhibition Assay

IC50: 1.41 µM
SMILES: CCNc1cc(C(=O)N[C@@H](Cc2ccccc2)[C@H](O)CNCc2cccc(C(F)(F)F)c2)cc(N2CCCCS2(=O)=O)c1 [BMCL193664 Compound 24]
